Experiments:
Format in all cases: cell-based
[1] = test system: phosphorylated SRC; assay: Western blot of NALM6 cells, phospho-SRC; settings: 3 μM/L, 1 μM/L, 24 hours
Protocol: (§1) 5.1. NALM6 cells treated with GZD824 were detected by Western blot method. After treating NALM6 cells with GZD824 of different concentrations (3 μM/L, 1 μM/L) for 24 hours, cells were collected and lysed to extract proteins. According to procedure of Western blot method, the extracted total proteins were analyzed with phospho-SRC, SRC, phospho-STAT3, STAT3, phospho-Rb, Rb and c-Myc antibodies. […] From the protein perspective, GZD824 kills leukemia cells through suppressing SRC/STAT3 signal pathway. Please refer to FIG. 13 for the experimental results.

[2] = test system: phosphorylated STAT3; assay: Western blot of NALM6 cells, phospho-STAT3; settings: 3 μM/L, 1 μM/L, 24 hours
Protocol: as §1

[3] = test system: SUPB15 cells; assay: Apoptosis kit (ANNEXIN V, PI) flow cytometry, SUPB15; settings: 3 μM, 1 μM, 24 hours, vs DMSO
Protocol: 1.2 After treating NALM6 and SUPB15 cells respectively with GZD824 (3 μM, 1 μM) and DMSO of different concentrations for 24 hours, apoptosis was detected using an apoptosis kit (ANNEXIN V, PI). Please refer to FIG. 2 for the results. After treating the two types of cells NALM6 and SUPB15 respectively with GZD824 of different concentrations (3 μM/L, 1 μM/L) for 24 hours, the cells were stained with the apoptosis kit (ANNEXIN V, PI), and apoptosis was detected with flow cytometry.

## Cc1ccc(C(=O)Nc2ccc(CN3CCN(C)CC3)c(C(F)(F)F)c2)cc1C#Cc1cnc2[nH]ncc2c1 [GZD824, (3-((1H-pyrazol[3,4-b]pyridine-5-substituted)ethinyl)-4-methyl-N-(4-((4-methylpiperazine-1-substituted)methyl)-3-(trifluoromethyl)phenyl)benzamide)]
[1]
  expression of phosphorylated SRC: suppresses the expression
[2]
  expression of phosphorylated STAT3: suppresses the expression
[3]
  apoptosis (ANNEXIN V positive cells): prominently enhance apoptosis

Reference: patent US20200330456A1, “NOVEL APPLICATION OF GZD824 AND PHARMACEUTICALLY ACCEPTABLE SALTS THEREOF IN TREATING DISEASES” (HEALTHQUEST PHARMA INC., priority 2016, published 2020)
